Assay results as given in paper PMC4109836, “Analysis of the co-operative interaction between the allosterically regulated proteins GK and GKRP using tryptophan fluorescence” (Biochemical Journal, 2014).
Substitutions are numbered along the chain they refer to.

Columns and labels:
GK-W99R/W167F/W257F [1] = biological target: T1, GK-W99R/W167F/W257F (Homo sapiens, UniProt P35557, W167F/W257F/W99R); test: Glucose binding to unbound GK-W99R/W167F/W257F
T1 construct: GST (cleaved yes); made in house; host or cells: Escherichia coli
T1 sequence (P35557 1-465 W99R/W167F/W257F): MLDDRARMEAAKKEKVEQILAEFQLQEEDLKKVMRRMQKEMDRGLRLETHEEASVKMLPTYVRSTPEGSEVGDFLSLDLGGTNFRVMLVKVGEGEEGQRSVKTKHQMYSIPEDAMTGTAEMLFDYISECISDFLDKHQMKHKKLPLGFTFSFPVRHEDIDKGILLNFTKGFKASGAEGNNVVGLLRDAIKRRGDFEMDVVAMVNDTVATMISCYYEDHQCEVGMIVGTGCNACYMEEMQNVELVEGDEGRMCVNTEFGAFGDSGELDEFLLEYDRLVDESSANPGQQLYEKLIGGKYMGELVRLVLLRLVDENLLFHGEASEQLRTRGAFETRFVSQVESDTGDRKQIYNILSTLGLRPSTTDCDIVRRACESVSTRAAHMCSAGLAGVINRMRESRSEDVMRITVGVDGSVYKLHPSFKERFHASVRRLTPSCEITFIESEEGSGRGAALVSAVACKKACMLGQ

GK-W99R/W167F/W257F [2] = biological target: T1, GK-W99R/W167F/W257F; parameters: method as in ref 4 (a number printed in a supplementary file, which may have a reference list of its own: not looked up in the article's list); conditions: cited from earlier work
GK (glucokinase) = conditions: cited from earlier work
[3] = biological target: T2, hGKRP (0.3 μM)–GK-W99R/W167F/W257F (1 μM) complex, GKRP-P446L (Homo sapiens, UniProt P35557+Q14397, P446L/W167F/W257F/W99R); test: Ligand binding by / disassembly of GKRP-P446L–GK-W99R/W167F/W257F complex by TF of hGKRP; conditions: ligand titration of 3:1 GK–GKRP-P446L complex, 20°C
T2 construct: FLAG; GST (cleaved yes); made in house; host or cells: Escherichia coli
T2 sequence (Q14397 1-625 P446L): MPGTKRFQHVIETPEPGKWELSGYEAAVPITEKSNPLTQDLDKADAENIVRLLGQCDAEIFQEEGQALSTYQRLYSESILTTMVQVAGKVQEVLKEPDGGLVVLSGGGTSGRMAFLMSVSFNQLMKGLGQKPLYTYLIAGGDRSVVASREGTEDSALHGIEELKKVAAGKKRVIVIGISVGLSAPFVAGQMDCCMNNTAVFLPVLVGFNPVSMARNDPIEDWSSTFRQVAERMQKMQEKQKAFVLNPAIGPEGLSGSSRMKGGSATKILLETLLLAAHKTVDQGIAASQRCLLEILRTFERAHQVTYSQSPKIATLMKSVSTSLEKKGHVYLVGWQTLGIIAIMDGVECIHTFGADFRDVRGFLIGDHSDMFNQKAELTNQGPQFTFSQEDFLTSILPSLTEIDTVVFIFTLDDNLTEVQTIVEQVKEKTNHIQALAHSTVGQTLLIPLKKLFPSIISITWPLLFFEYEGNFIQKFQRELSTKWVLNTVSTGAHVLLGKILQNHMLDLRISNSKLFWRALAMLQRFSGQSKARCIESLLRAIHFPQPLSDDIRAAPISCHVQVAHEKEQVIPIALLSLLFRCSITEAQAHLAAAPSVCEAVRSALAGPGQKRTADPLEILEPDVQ
T2 sequence (P35557 1-465 W99R/W167F/W257F): T1 sequence (P35557 1-465 W99R/W167F/W257F)
Experimental: Spectra were measured with a Fluorolog-3-21 Jobin-Yvon Spex Instrument SA equipped with a 450 W Xenon lamp for excitation and a cooled R2658P Hamamatsu photomultiplier tube for detection. For all measurements, 90° geometry was employed and 295 nm excitation wavelengths were used to observe fluorescence emission in the 300–500 nm range. For TF, spectra slit width was set to provide a bandpath of 3 nm for excitation and 3 nm for emission. Spectra were corrected for instrumental response using Spex instrument software. A thermostatically controlled cell holder maintained sample temperature at 20°C. A thermocoupler was used to measure sample temperature. The buffer used contained 20 mM phosphate, 50 mM KCl, 1 mM EDTA and 1 mM DTT (pH 7.2).
Fluorescence data were obtained via the stepwise addition of the appropriate amount of non-fluorescent GK-W99R/W167F/W257F to GKRP in a fluorescence cuvette. […] The change in GKRP protein fluorescence during titration was also measured using time-dependent scans. A manual procedure was used such that a typical titration with 10–12 additions required 20–25 min to perform. The same buffer as described above was routinely used unless stated otherwise. The bandpath was 0.5 nm at 295 nm for excitation and 12 nm at 340 nm for emission. […] For some graphical presentations the linear form of the Hill equation was used: log[F/(Fsat−F)]=H log x−H log KD [46].

GK-T65W/W99R/W167F/W257F = biological target: T3, GK-T65W/W99R/W167F/W257F (Homo sapiens, UniProt P35557, T65W/W167F/W257F/W99R); test: GKA and glucose binding by GK-T65W/W99R/W167F/W257F measured by TF; conditions: 25°C
T3 construct: GST (cleaved yes); made in house; host or cells: Escherichia coli
T3 sequence (P35557 1-465 T65W/W99R/W167F/W257F): T1 sequence (P35557 1-465 W99R/W167F/W257F) with T65W

GKRP-P446L = biological target: T4, GKRP-P446L (Homo sapiens, UniProt Q14397, P446L); test: Ligand binding to free GKRP-P446L measured by TF of GKRP
T4 construct: FLAG; made in house; host or cells: Escherichia coli
T4 sequence (Q14397 1-625 P446L): T2 sequence (Q14397 1-625 P446L)

[4] = D-glucose titration in the presence of GKA (20 μM)
[5] = 0.3 μM GKRP-P446L, ligand alone, 20°C

Kd (GK-W99R/W167F/W257F [1]): 5 mM
H [3]: 1
H (GK-T65W/W99R/W167F/W257F; [4]): 1
Kd (GK-T65W/W99R/W167F/W257F; [4]): 0.74 mM
H (GK-T65W/W99R/W167F/W257F; D-glucose titration): 1
Kd (GK-T65W/W99R/W167F/W257F; D-glucose titration): 4.6 mM
Kd (GKRP-P446L; 0.3 μM GKRP-P446L, D-glucose alone, 20°C, read-out: S0.5): 27 mM
H (Hill number) (GKRP-P446L; [5]): 1.49
ΔF (relative fluorescence change at 340 nm) (GKRP-P446L; [5]): −0.06
effect on the TF signal of GKRP-P446L (GKRP-P446L; ligand alone): lowered the TF signal
Structure (SMILES): OC[C@H]1OC(O)[C@H](O)[C@@H](O)[C@@H]1O (stereo partly drawn) [D-Glucose, D-glucose]
H (glucose) (GK-W99R/W167F/W257F [2]): 1.45
glucose S0.5 (GK-W99R/W167F/W257F [2]): 4.8 mM
Hill coefficient of GK with respect to glucose (GK (glucokinase)): approximately 1.7
affinity of GK for glucose (GK (glucokinase)): approximately 7.5 mM
